Values of other authors as cited in article PMC4832308 (Cancer, 2015).

How the values were obtained:
patients [1] = details: phase 1 study; cited from earlier work
patients [2] = details: phase 1 study, cited from earlier work

SMILES	best response SD rate (patients [1]) [%]	patients with best response SD (patients [1]) [patients]	patients with a response (patients [2]; MM) [patient]	response rate (patients [2]; MM) [%]	response duration (patients [2]; patient with MM) [months]	patients with SD (patients [2]) [patients]
COc1ccc(-c2ccc3c(N4CCOC[C@@H]4C)nc(N4CCOC[C@@H]4C)nc3n2)cc1CO [AZD8055]	14.3	7	–	–	–	–
CC(C)n1nc(-c2ccc3oc(N)nc3c2)c2c(N)ncnc21 [MLN0128]	–	–	1	4	~2	15
